Data as given in the NIST ThermoML archive (doi:10.1016/j.jct.2016.09.040).
± gives the expanded uncertainty stated by the source.

Experiment: mn = molality of the nth substance listed, in mol/kg
Settings: 75 kPa, Liquid; for viscosity: Capillary tube (Ostwald / Ubbelohde) method; for speed of sound: Frequency=3 MHz, Sing-around technique in a fixed-path interferometer; for mass density: Vibrating tube method

CCC(N)C(=O)O (stereo not drawn) [(.+-.)-α-aminobutyric acid] + O
Settings	mass density [kg/m3]	speed of sound [m/s]	viscosity [mPa·s]
293.15 K, m1 = 0.09999	1001.01 ± 0.6	1490.7 ± 4.1	1.042 ± 0.031
293.15 K, m1 = 0.2999	1006.4 ± 0.6	1506.8 ± 4.1	1.109 ± 0.031
293.15 K, m1 = 0.4999	1011.57 ± 0.6	1522.6 ± 4.1	1.181 ± 0.031
293.15 K, m1 = 0.7	1016.56 ± 0.6	1538.5 ± 4.1	1.266 ± 0.031
293.15 K, m1 = 0.9001	1021.37 ± 0.6	1554.2 ± 4.1	1.358 ± 0.031
293.15 K, m1 = 1	1023.7 ± 0.6	1561.8 ± 4.1	1.416 ± 0.031
298.15 K, m1 = 0.09999	999.805 ± 0.6	1504.7 ± 4.1	0.905 ± 0.03
298.15 K, m1 = 0.2999	1005.12 ± 0.6	1519.9 ± 4.1	0.97 ± 0.031
298.15 K, m1 = 0.4999	1010.25 ± 0.6	1535.1 ± 4.1	1.057 ± 0.031
298.15 K, m1 = 0.7	1015.2 ± 0.6	1550 ± 4.1	1.121 ± 0.031
298.15 K, m1 = 0.9001	1019.98 ± 0.6	1565.1 ± 4.1	1.199 ± 0.031
298.15 K, m1 = 1	1022.3 ± 0.6	1572.4 ± 4.1	1.243 ± 0.031
303.15 K, m1 = 0.09999	998.37 ± 0.6	1516.8 ± 4.1	0.813 ± 0.03
303.15 K, m1 = 0.2999	1003.66 ± 0.6	1531.3 ± 4.1	0.869 ± 0.03
303.15 K, m1 = 0.4999	1008.75 ± 0.6	1545.8 ± 4.1	0.93 ± 0.03
303.15 K, m1 = 0.7	1013.66 ± 0.6	1560 ± 4.1	0.997 ± 0.031
303.15 K, m1 = 0.9001	1018.4 ± 0.6	1574.5 ± 4.1	1.061 ± 0.031
303.15 K, m1 = 1	1020.7 ± 0.6	1581.7 ± 4.1	1.097 ± 0.031
308.15 K, m1 = 0.09999	996.759 ± 0.6	1526.9 ± 4.1	0.731 ± 0.03
308.15 K, m1 = 0.2999	1002 ± 0.6	1540.8 ± 4.1	0.781 ± 0.03
308.15 K, m1 = 0.4999	1007.05 ± 0.6	1554.7 ± 4.1	0.834 ± 0.03
308.15 K, m1 = 0.7	1011.92 ± 0.6	1568.6 ± 4.1	0.891 ± 0.03
308.15 K, m1 = 0.9001	1016.62 ± 0.6	1582.5 ± 4.1	0.949 ± 0.031
308.15 K, m1 = 1	1018.9 ± 0.6	1589.5 ± 4.1	0.979 ± 0.031
313.15 K, m1 = 0.09999	994.9 ± 0.6	1535.7 ± 4.1	0.661 ± 0.03
313.15 K, m1 = 0.2999	999.99 ± 0.6	1548.7 ± 4.1	0.706 ± 0.03
313.15 K, m1 = 0.4999	1004.83 ± 0.6	1561.8 ± 4.1	0.754 ± 0.03
313.15 K, m1 = 0.7	1009.41 ± 0.6	1574.7 ± 4.1	0.804 ± 0.03
313.15 K, m1 = 0.9001	1013.72 ± 0.6	1588 ± 4.1	0.853 ± 0.03
313.15 K, m1 = 1	1015.78 ± 0.6	1595.1 ± 4.1	0.895 ± 0.03
